# Columns and labels:
# subjects left forearm = experiment: Lidocaine delivery through porated stratum corneum with ultrasound; numbness assessed by rubbing a 30 gauge wire across the test site; type: in vivo, human
# From the text: A drawing of an illustrative delivery apparatus 300 is shown in FIG. 50, wherein the apparatus comprises a housing 304 enclosing a reservoir 308 for holding a drug-containing solution 312. The top portion of the housing comprises an ultrasonic transducer 316 for providing sonic energy to aid in transporting the drug-containing solution through micropores; 320 in the stratum corneum 324. A port 328 in the ultrasonic transducer permits application of pressure thereto for further aiding in transporting the drug-containing solution through the micropores in the stratum corneum. The delivery apparatus is applied to a selected area of an individual's skin such that it is positioned over at least one, and preferably a plurality, of micropores. An adhesive layer 332 attached to a lower portion of the housing permits the apparatus to adhere to the skin such that the drugcontaining solution in the reservoir is in liquid communication with the micropores.
# Five subjects were tested for the effectiveness of drug delivery using poration together with ultrasound. The experiment used two sites on the subjects left forearm about three inches apart, equally spaced between the thumb and upper arm. The site near the thumb will be referred to as site 1 the site furthest from the thumb will be referred to as site 2. […] Site 2 was porated with 24 holes spaced 0.8 millimeters apart in a grid contained within a 1 cm diameter circle. The micropores in Site 2 were generated according to the procedure of Example 6. […] Ultrasound applications were made with a custom manufactured Zevex ultrasonic transducer assembly set in burst mode with 0.4 Volts peak to peak input with 1000 count bursts occurring at 10 Hz with a 65.4 kHz fundamental frequency, i.e., a pulse modulated signal with the transducer energized for 15 millisecond bursts, and then turned off for the next 85 milliseconds. The measured output of the amplifier to the transducer was 0.090 watts RMS.
# Experiments were executed on both sites, Site 1 for 10 to 12 minute duration and Site 2 for two 5 minute duration intervals applied serially to the same site. Both sites were assessed for numbness using a scale of 10 to 0, where 10 indicated no numbness and 0 indicated complete numbness as reported by the test subjects.
# [1] = test system: human cadaver skin samples (stratum corneum); type: in vitro ADME
# Experimental: Modulated sonic energy and chemical enhancers were tested for their ability to control transdermal flux on human cadaver skin samples. In these tests, the epidermal membrane had been separated from the human cadaver whole skin by the heat-separation method of Example 1. The epidermal membrane was cut and placed between two halves of the permeation cell with the stratum corneum facing either the upper (donor) compartment or lower (receiver) compartment. Modified Franz cells were used to hold the epidermis, as shown in FIG. 2 of U.S. Pat. No. 5,445,611. Each Franz cell consists of an upper chamber and a lower chamber held together with one or more clamps. The lower chamber has a sampling port through which materials can be added or removed. A sample of stratum corneum is held between the upper and lower chambers when they are clamped together. The upper chamber of each Franz cell is modified to allow an ultrasound transducer to be positioned within 1 cm of the stratum corneum membrane. Methylene blue solution was used as an indicator molecule to assess the permeation of the stratum corneum. A visual record of the process and results of each experiment was obtained in a time stamped magnetic tape format with a video camera and video cassette recorder (not shown). Additionally, samples were withdrawn for measurement with an absorption spectrometer to quantitate the amount of dye which had traversed the stratum corneum membrane during an experiment. Chemical enhancers suitable for use could vary over a wide range of solvents and/or cell envelope disordering compounds as noted above. The specific enhancer utilized was: ethanol/glycerol/water/glycerolmonooleate/methyl laurate in 50/30/15/2.5/2.5 volume ratios. The system for producing and controlling the sonic energy included a programmable 0-30 MHz arbitrary waveform generator (Stanford Reserach Systems Model DS345), a 20 watt 0-30 MHz amplifier, and two unfocused ultrasound immersion transducers having peak resonances at 15 and 25 MHz, respectively. […]
# [2] = Site 2 porated plus ultrasound, after the second application
Compound,"numbness, scale of 10 to 0 (10 no numbness, 0 complete numbness) (subjects left forearm; Site 1 control, no micro-poration or sonic energy, at approximately 20 minutes)","numbness, scale of 10 to 0 (10 no numbness, 0 complete numbness) (subjects left forearm; Site 1 control: lidocaine and enhancer solution, no micro-poration or sonic energy, at 10 to 12 minutes, 5 subjects)","diameter of totally numb circle (subjects left forearm; Site 2 porated plus ultrasound, after the second 5 minute application)",diameter of numb oval pattern parallel to the forearm (subjects left forearm; [2]) [cm],diameter of numb oval pattern perpendicular to the forearm (subjects left forearm; [2]) [cm],"numbness, scale of 10 to 0 (10 no numbness, 0 complete numbness) (subjects left forearm; Site 2 porated with 24 holes plus low level ultrasound, in the 1 cm circle containing the porations, first 5 minute application)",visual evidence of dye flux through the stratum corneum [1],visually detectable permeation of the stratum corneum [1],"level of dye solution in 2 ml of receiver medium (no visual indication of dye flux) ([1]; human, 5 min)"
CCN(CC)CC(=O)Nc1c(C)cccc1C [lidocaine],3,7 to 10,about 12 cm,2 to 6,2 to 2.5,0 to 1,–,–,–
CN(C)c1ccc2nc3ccc(=[N+](C)C)cc-3sc2c1 [methylene blue],–,–,–,–,–,–,No visual evidence of dye flux,no visually detectable permeation,< 0.0015 % (v/v)
